Measurements taken from patent publication US8299070B2, “Indole compounds and pharmaceutical use thereof” (Japan Tobacco Inc., priority 2009, dated 2012).

Target: T1, hITK enzyme (FLAG-tagged full-length hITK) (Homo sapiens, UniProt Q08881)
T1 construct: strongly expressing FLAG-tagged full-length hITK in Sf9 cells; FLAG; made in house; host or cells: Sf9 insect cells (ITK); Escherichia coli (GST-SLP76 substrate)
T1 sequence (Q08881 1-620): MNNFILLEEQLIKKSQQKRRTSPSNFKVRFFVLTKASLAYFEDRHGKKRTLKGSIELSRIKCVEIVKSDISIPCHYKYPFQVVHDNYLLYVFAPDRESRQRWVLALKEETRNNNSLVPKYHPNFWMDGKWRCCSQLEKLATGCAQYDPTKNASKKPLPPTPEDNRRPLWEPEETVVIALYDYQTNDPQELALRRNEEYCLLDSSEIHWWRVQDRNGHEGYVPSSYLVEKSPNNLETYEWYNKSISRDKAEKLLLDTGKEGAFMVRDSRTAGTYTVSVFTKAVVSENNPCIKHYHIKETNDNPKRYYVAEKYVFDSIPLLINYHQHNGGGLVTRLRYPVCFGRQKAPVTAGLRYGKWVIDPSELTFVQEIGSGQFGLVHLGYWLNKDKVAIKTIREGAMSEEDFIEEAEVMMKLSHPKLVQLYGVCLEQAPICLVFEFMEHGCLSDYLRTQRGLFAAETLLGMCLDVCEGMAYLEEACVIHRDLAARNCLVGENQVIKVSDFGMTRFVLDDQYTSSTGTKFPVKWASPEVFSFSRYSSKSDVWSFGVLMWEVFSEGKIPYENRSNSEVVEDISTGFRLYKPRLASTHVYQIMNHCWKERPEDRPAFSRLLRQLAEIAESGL
Test: ITK inhibitory activity (HTRF kinase assay, biotinylated GST-SLP76 substrate)
Assay type: biochemical
Conditions: IC50 calculated from the 2 test compound concentrations sandwiching 50% ITK inhibitory rate
Procedure, shortened: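 Sf9-expressed hITK (50 ng/mL enzyme solution) reacted 10 min at RT in MOPS pH 7.0, 10 mmol/L MgCl2, 1 mmol/L DTT with E. coli SLP76 aa95–175 substrate; substrate solution held 100 µmol/L ATP (6 µmol/L for selected compounds). HTRF 665/620 ratio, blank-corrected; IC50 interpolated between two concentrations bracketing 50% inhibition.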

Row | IC50 [nM] | SMILES
1 | < 3 | CC(C)OCC(=O)N(C)c1ccc2cc(-c3n[nH]c4c3CCC(C)(C)C4)[nH]c2c1 [Example 56]
2 | 36 | CC(C)(C)CNC(=O)c1ccc2cc(-c3n[nH]c4c3CCC(C)(C)C4)[nH]c2c1 [Example 11]
3 | 2 | CN(C(=O)CN1CCOCC1=O)c1ccc2cc(-c3n[nH]c4c3CCC(C)(C)C4)[nH]c2c1 [Example 6, N-[2-(6,6-dimethyl-4,5,6,7-tetrahydro-1H-indazol-3-yl)-1H-indol-6-yl]-N-methyl-2-(3-oxomorpholin-4-yl)acetamide]

The remaining lines, values behind:

Row | SMILES | IC50 [nM]
4 | CCN(C(=O)CN1CC(C)(C)OCC1=O)c1ccc2cc(-c3n[nH]c4c3CCC(C)(C)C4)[nH]c2c1 [Example 277] | 1
5 | CN(C(=O)C1CCOC1(C)C)c1ccc2cc(-c3n[nH]c4c3CCC(C)(C)C4)[nH]c2c1 (stereo not shown) [Example 201] | 10
6 | CCC(=O)N(C)c1ccc2cc(-c3n[nH]c4c3CC(OC)CC4)[nH]c2c1 (stereo not shown) [Example 368] | 131
7 | CCN(C(=O)CO)c1ccc2cc(-c3n[nH]c4c3CCC(C)(C)C4)[nH]c2c1 [Example 206] | 5
